We go through two molecules from publication PMC11637191, “The pH-dependence of efflux ratios determined with bidirectional transport assays across cellular monolayers” (International Journal of Pharmaceutics: X, 2024).

A short description of series [1]: Measurement of paracellular transport (Ppara) in MDCK-MDR1 cells with and without P-gp inhibitors. The settings on record: dog; for Papp: MDCK-MDR1, with elacridar 2 µM. It is filed as in vitro ADME, canine. The source says:
(§1) In initial fits, we used experimentally obtained values for Ppara , determined by measuring the Papp of the relevant compound at a pH value where paracellular transport was expected to dominate. Since the compounds in this study are P-gp substrates, elacridar was also used to inhibit P-gp. Under these conditions, the measured Papp is expected to be a measure of Ppara . […]
(§2) X Measurement of paracellular transport […]
(§3) assess its relative contribution to overall flux, it is necessary to quantify paracellular transport in some way. An approximation of paracellular transport can be mathematically calculated as desc ribed in […]
(§4) and cell type can influence and complicate the predictions, leading to uncertainties. H owever, it can also be experimentally measured provided that it can be assured that the P app would be dominated by the contribution of P para . […]
(§5) compounds. In order to ensure paracellular dominance, 2 µM elacridar was used to inhibit potential P-gp facilitated efflux, and the transport buffer was set to a pH that would severely restrict the neutral […]
(§6) Table S13: P app values and measured logP para for basic and acidic marker compounds. P app values are the mean of three timepoints per replicate, for a total of three replicates (n = 3) ± standard […]
(§7) Compound pH Papp, A⟶B logP para Recovery fn
(§8) In light of the uncertainties in predicting P para , it was presumed more apt to measure P para for each compound individually in parallel with the pH dependence experiments. As described in Section 4.3 of the main text, experiments were initially performed for each tested compound with inhibitor and appropriate pH values (similar to those performed for Table S12) in an attempt to ensure the dominance of paracellular transport. These values could then be used as a direct measure for P para for each compound that could be fed to the model for its individual fit. […]
(§9) affecting P para and/or the measurement of it, we measured the P app of more commonly-used markers for paracellular transport with and without inhibitor. The transport of these rather hydrophilic compounds is known to be dominated by the paracellular route. Furthermore, for our MDCK- MDR1 […]
(§10) efflux is not expected to play a role. As such, the addition of inhibitor in this case is purely to evaluate if the P app changes when it is present.

In series [2] the test system is P-gp (MDR1). The series is described as above. Particulars: dog, pH 7.4, one replicate. It is filed as in vitro ADME, canine.
Text: as §1, §2, §3, §4, §5, §6, §7, §8, §9, §10

Series [3] can be described thus: Calculation of neutral fraction (fn).
Series [4] deals with MDCK-II-MDR1 cells.
The conditions of series [5]: basic; ref Advanced Chemistry Development, 2020; cited from earlier work.
Series [6] is described as follows: in vitro. The settings on record: dog.
In series [7] the test system is P-gp (MDR1). In words: in vitro. The settings on record: dog.

Where two headings read alike, the source gives them in different places.

Take `NS(=O)(=O)c1cc2c(cc1Cl)N=CNS2(=O)=O` [Chlorothiazide]: the recovery was 125% in series [1] (MDCK-MDR1, pH 7.4, A⟶B, no inhibitor, pH 7.4); 104% in series [1] (MDCK-MDR1, pH 7.4, B⟶A, no inhibitor, pH 7.4); 108% in series [1] (MDCK-MDR1, pH 7.4, with cyclosporin A 10 µM, A⟶B + cyclosporin-A, pH 7.4); 100% in series [1] (MDCK-MDR1, pH 7.4, with elacridar 2 µM, A⟶B + elacridar, pH 7.4); 96% in series [1] (MDCK-MDR1, pH 7.4, with verapamil 100 µM, A⟶B + verapamil, pH 7.4); 105% in series [1] (MDCK-MDR1, pH 9, with elacridar 2 µM, + 2 µM elacridar, pH 9, n = 3 (Table S13)). In addition, the Papp (as a rule, the rate of passage across a membrane or cell layer, normalised by area and donor concentration) in series [1] (+ 2 µM elacridar, pH 9, three replicates (n = 3) (Table S13)) worked out at 1.7 ± 0.7 ×10⁻⁶ cm/s; in series [2] (MDCK-MDR1, with cyclosporin A 10 µM, A → B + cyclosporin-A (10 μM)), 0.7 ×10⁻⁶ cm/s; in series [2] (MDCK-MDR1, with elacridar 2 µM, A → B + elacridar (2 μM)), 0.9 ×10⁻⁶ cm/s; in series [2] (MDCK-MDR1, with verapamil 100 µM, A → B + verapamil (100 μM)), 1.4 ± 0.1 ×10⁻⁶ cm/s; in series [2] (MDCK-MDR1, A → B, no inhibitor) it was 0.2 ×10⁻⁶ cm/s. In addition, the results for the fn in series [3] (neutral fraction at pH 7.4) and in series [3] (neutral fraction at pH 9) were 16.5% and 0.8%, respectively.

`COc1cccc2c1C(=O)c1c(O)c3c(c(O)c1C2=O)C[C@@](O)(C(=O)CO)C[C@@H]3O[C@H]1C[C@H](N)[C@H](O)[C@H](C)O1` [Doxorubicin]: the recovery in series [1] (MDCK-MDR1, pH 5, with elacridar 2 µM, + 2 µM elacridar, pH 5, n = 3 (Table S13)) is 130%; in series [6] (MDCK-MDR1, pH 5), 94 to 100%; in series [6] (MDCK-MDR1, pH 6), 90 to 96%; in series [6] (MDCK-MDR1, pH 7) it was 88 to 93%; in series [6] (MDCK-MDR1, pH 8), 64 to 71%. The Papp in series [1] (+ 2 µM elacridar, pH 5, three replicates (n = 3) (Table S13)) stood at 0.4 ± 0.1 ×10⁻⁶ cm/s; in series [7] (MDCK-MDR1, pH 5), 0.77 ± 0.26 ×10⁻⁶ cm/s; in series [7] (MDCK-MDR1, pH 6), 0.16 ± 0.03 ×10⁻⁶ cm/s; in series [7] (MDCK-MDR1, pH 7) it was 0.13 ± 0.03 ×10⁻⁶ cm/s; in series [7] (MDCK-MDR1, pH 8), 0.17 ± 0.05 ×10⁻⁶ cm/s. Moreover, the “logPapp, B⟶A” value in series [4] (pH 6, iso-pH method) is reported as -6.64 P in cm/s; in series [4] (pH 7, iso-pH method) it was -6.11 P in cm/s; in series [4] (pH 8, iso-pH method) it was -5.36 P in cm/s. Moreover, in series [5], the pKa (usually the pH at which an ionisable group is half protonated) is 9.56. In series [7] (MDCK-MDR1, pH 5), the Papp A→B (commonly the apparent permeability from the apical to the basolateral side of a cell layer) is 0.457 ×10⁻⁶ cm/s. The Papp B→A (as a rule, how fast a substance crosses the layer from the basolateral side) in series [7] (MDCK-MDR1, pH 5) came to 0.46 ± 0.25 ×10⁻⁶ cm/s; in series [7] (MDCK-MDR1, pH 6), 0.23 ± 0.08 ×10⁻⁶ cm/s; in series [7] (MDCK-MDR1, pH 7), 0.78 ± 0.36 ×10⁻⁶ cm/s; in series [7] (MDCK-MDR1, pH 8), 4.4 ± 0.29 ×10⁻⁶ cm/s. Moreover, the fn in series [3] (neutral fraction at pH 5) is given as 0.0%.
